Assay results from US5030629A, “Compositions and method comprising heterocyclic compounds containing two heteroatoms as membrane penetration enhancers” (priority 1989, dated 1991).
Where two headings read alike, the source gives them in different places.

How the values were obtained:
[1] = Hygroscopicity; assay type: physicochemical
Method: 34 g (127 mmoles) 1-(2-Hyrdoxyethyl)-2-undecyl-2-imidazoline was dissolved in 300 ml of hexane and 8.5 g […] of acetic acid in 50 ml of hexane were reacted. The precipitate was filtered and then dried at 40°-50° C. under high vacuum for 5 hours. Yield 40.7 g (97.8%).

[2] = patch, 5% ES, control without enhancer; receptor ethanol/saline (3:7)
Method: The compounds of the present invention were tested in vitro as penetration enhancers according to the procedure outlined below. The penetration enhancers were formulated with pharmacologically active agents in creams and patches.
Human stratum corneum was isolated from full thickness human skin as described by Bronaugh et. al., J. Pharm. […] The skin was placed between the donor and the receptor compartments of diffusion cells in such a way that the dermal side of the skin faced the receptor compartment which was filled with normal saline (pH 7.2-7.4) or appropriate releasing media. The stratum corneum was equilibrated at 37° C. overnight prior to the application of a topical formulation or a transdermal patch. All formulations were studied in triplicate.
(§4) The entire contents of the receptor compartment were removed at specific time intervals for duration of the study period and replenished with fresh saline.
Procedure of Example 39 was repeated with the following 17B-Estradiol (ES) patch formulations. Normal saline in the receptor compartment was replaced by ethanol/saline (3:7).

[3] = assay type: in vitro ADME, human
Method: Sci. 75, 1094 (1986). […] All formulations were studied in triplicate.
Example 39 was repeated with 1% Diclofenac gel, with and without compound of Example 21, was evaluated. The aliquots were analyzed by U.V. Spectrophotometry and average cumulative amount of drug permeating over 24 hours was calculated.

[4] = Examples 51-62 repeated with other penetration enhancers; comparison as penetration enhancing agents; conditions: in words
[5] = Penetration of hydrocortisone through hairless mouse skin in diffusion cells; assay type: in vitro ADME, hairless mice; conditions: for % Penetration (hydrocortisone): 1% hydrocortisone, 2% 1,2-propanediol, 2% enhancer, average for two cells; for penetration enhancing properties as compared to the control (hydrocortisone): in words
Method: The compounds of Examples 8 and 13 were tested as penetration enhancing agents according to the procedure below:
(§1) The skin was incubated at 37° C. and the ambient humidity.
(§2) 100 microliters of the solution containing 1 mg of test drug was applied to the epidermal surface within the donor compartment. The entire contents from the 4.2 ml receptor compartment bathing the corium were removed for analysis at 5 or 6, 12 and 24 hours intervals. In each case, the receptor compartment was refilled with 4.2 ml of fresh normal saline.
(§3) The aliquots removed after 5 or 6, 12 and 24 hours were analyzed by HPLC using a C-18 reverse phase column.

[6] = patch, 3% PG, control without enhancer, receptor ethanol/saline (3:7)
Method: The skin was placed between the donor and the receptor compartments of diffusion cells in such a way that the dermal side of the skin faced the receptor compartment which was filled with normal saline (pH 7.2-7.4) or appropriate releasing media. The stratum corneum was equilibrated at 37° C. overnight prior to the application of a topical formulation or a transdermal patch. All formulations were studied in triplicate.
as §4
Procedure of Example 39 was repeated with the following two sets of Progesterone (PG) patch formulations. Normal saline in the receptor compartment was replaced with ethanol/saline (3:7).

[7] = Penetration of 5-fluorouracil through hairless mouse skin in diffusion cells; assay type: in vitro ADME, hairless mice; conditions: for % Penetration (5-Fluorouracil): 1% 5-Fluorouracil, 2% enhancer
Method: as §1, §2, §3
The compounds of Examples 8 was tested as penetration enhancers according to the procedure outlined under Example 49.

CCCCCCCCCCCC1=NCCN1CCO [Example 37, 1-(2-Hyrdoxyethyl)-2-undecyl-2-imidazoline acetate]
behaviour upon absorbing moisture [1]: hydrated to a gel upon absorbing moisture
hygroscopicity (hydroscopic [sic]) [1]: hydroscopic

C[C@]12CC[C@@H]3c4ccc(O)cc4CC[C@H]3[C@@H]1CC[C@@H]2O [ES, 17B-Estradiol]
Average Cumulative Amount of ES in Micrograms Permeating over 51 Hours [2]: 30.90 ± 1.00 Micrograms

O=C(O)Cc1ccccc1Nc1c(Cl)cccc1Cl [Diclofenac, reference compound]
Average Cumulative Amount of Diclofenac in Micrograms permeating over 24 hours [3]: 106.7 ± 33.5 Micrograms

CCCCCCCCCCC1COC(C(F)(F)F)=N1 (centres unmarked) [Example 21, 4-Decyl-2-trifluoromethyl-2-oxazoline]
permeation of Diclofenac through human skin compared to control [3]: increases the permeation
penetration enhancing, compared with the prior art and the other examples [4]: significantly superior penetration enhancing agents

CCCCCCCCCCCC1=NC(C)(CO)CO1 (centres unmarked) [Example 13, 4-hydroxymethyl-4-methyl-2-undecyl-2-oxazoline]
% Penetration (hydrocortisone) ([5]; 6 hrs): 8.8%
% Penetration (hydrocortisone) ([5]; 12 hrs): 17.3%
% Penetration (hydrocortisone) ([5]; 24 hrs): 34.9%
penetration enhancing properties as compared to the control (hydrocortisone) [5]: far superior penetration enhancing properties

CC(=O)[C@H]1CC[C@H]2[C@@H]3CCC4=CC(=O)CC[C@]4(C)[C@H]3CC[C@]12C [PG, Progesterone]
Average Cumulative Amount of PG in Micrograms Permeating over 51 Hours ([6]; SET A): 176.3 ± 92.0 Micrograms
Average Cumulative Amount of PG in Micrograms Permeating over 51 Hours ([6]; SET B): 25 ± 17 Micrograms

CCCCCCCCCCCC1=NC(C)(C)CO1 [Example 8, 4,4-dimethyl-2-undecyl-2-oxazoline]
% Penetration (hydrocortisone) ([5]; 6 hrs): 16.1%
% Penetration (hydrocortisone) ([5]; 12 hrs): 28.2%
% Penetration (hydrocortisone) ([5]; 24 hrs): 49.1%
penetration enhancing properties as compared to the control (hydrocortisone) [5]: far superior penetration enhancing properties
% Penetration (5-Fluorouracil) ([7]; 6 hrs): 59.2%
% Penetration (5-Fluorouracil) ([7]; 12 hrs): 60.3%
% Penetration (5-Fluorouracil) ([7]; 24 hrs): 60.5%
penetration enhancement compared to the control (5-Fluorouracil) ([7]; in words): superior to the control
